# Experimental data reported in ChEMBL document CHEMBL4382198, “Discovery of Risdiplam, a Selective Survival of Motor Neuron-2 ( SMN2) Gene Splicing Modifier for the Treatment of Spinal Muscular Atrophy (SMA)” (J Med Chem, 2018).
# How the values were obtained:
# in vivo = conditions: rat
# [1] = Effect on FOXM1b/c mRNA splicing in cynomolgus monkey induced pluripotent stem cells by RT-qPCR analysis; assay type: ADME, Macaca fascicularis
# [2] = Effect on FOXM1b/c mRNA splicing in human induced pluripotent stem cells by RT-qPCR analysis; assay type: ADME
# Homo sapiens [3] = species on record: Homo sapiens; test: Activation of human full length SMN2 mRNA expressed in human SMA-derived fibroblasts by RT-qPCR analysis
# [4] = target: Survival motor neuron protein (Homo sapiens) (UniProt Q16637); test: Activation of SMN protein in human SMA-derived fibroblasts after 48 hrs by HTRF assay
# Chain of Survival motor neuron protein (Homo sapiens) (Q16637 whole entry): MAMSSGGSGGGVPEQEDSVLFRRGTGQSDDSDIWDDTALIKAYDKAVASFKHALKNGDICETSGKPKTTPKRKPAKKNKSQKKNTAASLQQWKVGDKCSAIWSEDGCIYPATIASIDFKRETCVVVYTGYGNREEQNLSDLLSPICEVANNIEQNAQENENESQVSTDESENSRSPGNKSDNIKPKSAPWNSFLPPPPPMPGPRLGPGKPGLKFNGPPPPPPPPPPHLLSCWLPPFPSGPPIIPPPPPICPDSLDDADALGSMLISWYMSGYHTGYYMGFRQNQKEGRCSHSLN
# [5] = Drug metabolism in po dosed mouse plasma assessed as dealkylated 2-(4-ethyl-6-methylpyrazolo[1,5-a]pyrazin-2-yl)-9-methyl-7-(piperidin-4-yl)-4H-pyrido[1,2-a]pyrimidin-4-one metabolite formation; assay type: ADME, organism-based; conditions: in vivo
# [6] = Efflux ratio of permeability in human SMA-derived fibroblasts; assay type: ADME, cell-based, Fibroblast; conditions: not told
# [7] = Efflux ratio of permeability in mouse 3T3 cells; assay type: ADME, cell-based, NIH3T3
# [8] = Effect on human FOXM1b/c mRNA splicing expressed in human SMA-derived fibroblasts by RT-qPCR analysis; assay type: ADME
# [9] = Drug metabolism in po dosed rat plasma assessed as dealkylated 2-(4-ethyl-6-methylpyrazolo[1,5-a]pyrazin-2-yl)-9-methyl-7-(piperidin-4-yl)-4H-pyrido[1,2-a]pyrimidin-4-one metabolite formation; assay type: ADME, organism-based; conditions: in vivo
# [10] = Drug metabolism in po dosed cynomolgus monkey plasma assessed as dealkylated 2-(4-ethyl-6-methylpyrazolo[1,5-a]pyrazin-2-yl)-9-methyl-7-(piperidin-4-yl)-4H-pyrido[1,2-a]pyrimidin-4-one metabolite formation; assay type: ADME, organism-based, Macaca fascicularis; conditions: in vivo
# [11] = Chronic toxicity in retina of po dosed cynomolgus monkey assessed as formation of scotopic depressed B-waves after 39 weeks by ERG analysis; assay type: organism-based, Macaca fascicularis; conditions: in vivo, 6552 h
# [12] = Drug metabolism in human plasma assessed as dealkylated 2-(4-ethyl-6-methylpyrazolo[1,5-a]pyrazin-2-yl)-9-methyl-7-(piperidin-4-yl)-4H-pyrido[1,2-a]pyrimidin-4-one metabolite formation; assay type: ADME, cell-free
# [13] = Chronic toxicity in retina of po dosed cynomolgus monkey assessed as excess vacuolation of inner nuclear layer after 39 weeks by histological analysis; assay type: organism-based, Macaca fascicularis; conditions: in vivo, 6552 h
# [14] = Drug metabolism in cynomolgus monkey plasma assessed as dealkylated 2-(4-ethyl-6-methylpyrazolo[1,5-a]pyrazin-2-yl)-9-methyl-7-(piperidin-4-yl)-4H-pyrido[1,2-a]pyrimidin-4-one metabolite formation; assay type: ADME, cell-free, Macaca fascicularis
# Homo sapiens [15] = species on record: Homo sapiens; test: Modulation of human SMN2 mRNAsplicing expressed in HEK293H cells by qRT-PCR analysis; assay type: cell-based
# [16] = Drug metabolism in pig plasma assessed as dealkylated 2-(4-ethyl-6-methylpyrazolo[1,5-a]pyrazin-2-yl)-9-methyl-7-(piperidin-4-yl)-4H-pyrido[1,2-a]pyrimidin-4-one metabolite formation; assay type: ADME, cell-free, Sus scrofa
# [17] = Dark toxicity in mouse 3T3 cells assessed as decrease in cell viability by neutral red uptake assay; assay type: cell-based, NIH3T3
# [18] = Drug metabolism in mouse plasma assessed as dealkylated 2-(4-ethyl-6-methylpyrazolo[1,5-a]pyrazin-2-yl)-9-methyl-7-(piperidin-4-yl)-4H-pyrido[1,2-a]pyrimidin-4-one metabolite formation; assay type: ADME, cell-free
# [19] = Oral bioavailability in cynomolgus monkey at 1.3 mg/kg administered as single dose; assay type: ADME, organism-based, Macaca fascicularis; conditions: in vivo
# Mus musculus [20] = test: In-vivo stabilization of SMN2 mRNA in SMA neonatal delta7 mouse model assessed as increase in free SMN protein levels by measuring free AUC (0 to 42 hrs) at 3 mg/kg, ip dosed once daily starting from postnatal day 3 to postnatal day 9; assay type: functional
# hERG (KCNH2) = hERG (KCNH2) (Homo sapiens, UniProt Q12809); test: (§1) Inhibition of human ERG at 37 degC; conditions: human
# Chain of hERG (KCNH2) (Q12809 whole entry): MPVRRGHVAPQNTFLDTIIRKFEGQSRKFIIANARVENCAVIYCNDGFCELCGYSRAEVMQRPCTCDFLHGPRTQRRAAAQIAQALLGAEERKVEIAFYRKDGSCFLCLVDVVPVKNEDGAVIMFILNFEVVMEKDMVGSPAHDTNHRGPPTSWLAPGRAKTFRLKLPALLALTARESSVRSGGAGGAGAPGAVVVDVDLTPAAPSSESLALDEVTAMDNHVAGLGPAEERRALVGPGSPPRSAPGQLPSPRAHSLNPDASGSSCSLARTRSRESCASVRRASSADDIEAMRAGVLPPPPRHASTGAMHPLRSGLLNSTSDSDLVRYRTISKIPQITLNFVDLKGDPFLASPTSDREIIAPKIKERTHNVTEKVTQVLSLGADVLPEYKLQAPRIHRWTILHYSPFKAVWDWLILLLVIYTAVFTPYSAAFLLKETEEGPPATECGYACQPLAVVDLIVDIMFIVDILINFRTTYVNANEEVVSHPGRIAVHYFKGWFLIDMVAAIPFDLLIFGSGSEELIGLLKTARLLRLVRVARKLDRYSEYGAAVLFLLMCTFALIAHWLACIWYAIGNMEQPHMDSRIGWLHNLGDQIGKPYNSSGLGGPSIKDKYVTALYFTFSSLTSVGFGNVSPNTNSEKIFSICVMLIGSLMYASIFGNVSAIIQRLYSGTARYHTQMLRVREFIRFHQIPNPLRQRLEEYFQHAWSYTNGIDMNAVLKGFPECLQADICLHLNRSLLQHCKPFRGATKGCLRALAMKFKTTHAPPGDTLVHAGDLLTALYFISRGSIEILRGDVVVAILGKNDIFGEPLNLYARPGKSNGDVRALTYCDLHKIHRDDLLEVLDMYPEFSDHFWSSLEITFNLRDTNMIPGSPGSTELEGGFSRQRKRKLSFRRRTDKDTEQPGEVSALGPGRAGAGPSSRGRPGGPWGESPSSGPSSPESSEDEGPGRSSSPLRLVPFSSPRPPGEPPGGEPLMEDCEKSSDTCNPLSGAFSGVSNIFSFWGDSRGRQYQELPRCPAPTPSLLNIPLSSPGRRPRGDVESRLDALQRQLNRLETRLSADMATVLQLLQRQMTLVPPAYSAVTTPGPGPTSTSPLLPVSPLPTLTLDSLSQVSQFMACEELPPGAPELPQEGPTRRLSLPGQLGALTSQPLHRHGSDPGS
# [21] = target: Voltage-gated inwardly rectifying potassium channel KCNH2 (Homo sapiens, UniProt Q12809); test: as §1
# Chain of Voltage-gated inwardly rectifying potassium channel KCNH2 (Q12809 whole entry): as above
# [22] = Tmax in human; assay type: ADME
# [23] = Terminal half life in cynomolgus monkey; assay type: ADME, Macaca fascicularis; conditions: in vivo, read-out: beta t1/2 (converted)
# Mus musculus [24] = test: In-vivo stabilization of SMN2 mRNA in SMA neonatal delta7 mouse model assessed as increase in free SMN protein levels by measuring free AUC (0 to 42 hrs) at 1 mg/kg, ip dosed once daily starting from postnatal day 3 to postnatal day 9; assay type: functional
# [25] = Stabilization of human […] mRNA splicing expressed in human SMA-derived fibroblasts at 131 to 655 nM by RT-qPCR analysis; assay type: ADME; conditions: 0.655 µM
# [26] = Half life in cynomolgus monkey at 1.3 mg/kg, po administered as single dose; assay type: ADME, organism-based, Macaca fascicularis; conditions: in vivo
# [27] = Drug metabolism in rabbit plasma assessed as dealkylated 2-(4-ethyl-6-methylpyrazolo[1,5-a]pyrazin-2-yl)-9-methyl-7-(piperidin-4-yl)-4H-pyrido[1,2-a]pyrimidin-4-one metabolite formation; assay type: ADME, cell-free, Oryctolagus cuniculus
# [28] = Half life in rat at 5 mg/kg, po administered as single dose; assay type: ADME, organism-based; conditions: in vivo
# [29] = Lipophilicity, log D of the compound at pH 7.4; assay type: physicochemical; conditions: buffer
# [30] = Effect on human FOXM1a mRNA splicing expressed in human SMA-derived fibroblasts by RT-qPCR analysis; assay type: ADME
# [31] = Stabilization of human MADD mRNA splicing expressed in human SMA-derived fibroblasts at 131 to 655 nM by RT-qPCR analysis; assay type: ADME; conditions: 0.655 µM
# [32] = Stabilization of human APLP2 mRNA splicing expressed in human SMA-derived fibroblasts at 131 to 655 nM by RT-qPCR analysis; assay type: ADME; conditions: 0.655 µM
# [33] = Terminal half life in human; assay type: ADME; conditions: read-out: beta t1/2 (converted)
# [34] = Chronic toxicity in retina of po dosed cynomolgus monkey assessed as formation of microcystic spaces in the inner retinal layers after 39 weeks by OCT analysis; assay type: organism-based, Macaca fascicularis; conditions: in vivo, 6552 h
# [35] = Drug metabolism in dog plasma assessed as dealkylated 2-(4-ethyl-6-methylpyrazolo[1,5-a]pyrazin-2-yl)-9-methyl-7-(piperidin-4-yl)-4H-pyrido[1,2-a]pyrimidin-4-one metabolite formation; assay type: ADME, cell-free, Canis lupus familiaris
# [36] = Volume of distribution at steady state in cynomolgus monkey; assay type: ADME, Macaca fascicularis; conditions: in vivo, read-out: Vdss
# [37] = Terminal half life in rat; assay type: ADME; conditions: in vivo, read-out: beta t1/2 (converted)
# [38] = Volume of distribution at steady state in rat at 2 mg/kg, iv administered as single dose; assay type: ADME, organism-based; conditions: in vivo, read-out: Vdss
# [39] = Stabilization of human STRN3 mRNA splicing expressed in human SMA-derived fibroblasts at 131 to 655 nM by RT-qPCR analysis; assay type: ADME; conditions: 0.655 µM
# [40] = Chronic toxicity in retina of po dosed cynomolgus monkey assessed as effect on photo-receptor layers after 39 weeks by histological analysis; assay type: organism-based, Macaca fascicularis; conditions: in vivo, 6552 h
# [41] = Clearance in rat at 2 mg/kg, iv administered as single dose; assay type: ADME, organism-based; conditions: in vivo
# [42] = Chronic toxicity in retina of po dosed cynomolgus monkey assessed as RPE hypertrophy 39 weeks by histological analysis; assay type: organism-based, Macaca fascicularis; conditions: in vivo, 6552 h
# [43] = Chronic toxicity in retina of po dosed cynomolgus monkey assessed as multifocal peripheral retina degeneration after 39 weeks by OCT analysis; assay type: organism-based, Macaca fascicularis; conditions: in vivo, 6552 h
# [44] = Cardiotoxicity in cynomolgus monkey assessed as prolongation of QTc interval time; assay type: toxicity, Macaca fascicularis
# [45] = Chronic toxicity in retina of po dosed cynomolgus monkey assessed as effect on outer nuclear layers after 39 weeks by histological analysis; assay type: organism-based, Macaca fascicularis; conditions: in vivo, 6552 h
# [46] = Drug metabolism in rat plasma assessed as dealkylated 2-(4-ethyl-6-methylpyrazolo[1,5-a]pyrazin-2-yl)-9-methyl-7-(piperidin-4-yl)-4H-pyrido[1,2-a]pyrimidin-4-one metabolite formation; assay type: ADME, cell-free
# [47] = Oral bioavailability in rat at 5 mg/kg administered as single dose; assay type: ADME, organism-based; conditions: in vivo
# NIH3T3 = test: Phototoxicity in mouse 3T3 cells assessed as decrease in cell viability in presence of UV light by neutral red uptake assay; assay type: cell-based; conditions: NIH3T3, light or radiation study
smiles,measurement,setting,value
CCc1nc(C)cn2nc(-c3cc(=O)n4cc(N5CCN6CCC[C@]6(C)C5)ccc4n3)cc12,pKa,physchem,8.4
same,Vd,in vivo,15 L/kg
Cc1cn2nc(-c3cc(=O)n4cc(N5CCN(O)C6(CC6)C5)ccc4n3)cc(C)c2n1,Activity,[1]; cynomolgus monkey,Non-Toxic
same,Activity,[2]; human,Non-Toxic
CCc1nc(C)cn2nc(-c3cc(=O)n4cc(C5CCN(CC)CC5)cc(C)c4n3)cc12,pKa,physchem,9.1
same,Vd,in vivo,20 L/kg
CCc1nc(C)cn2nc(-c3cc(=O)n4cc(N5CCN6CCC[C@H]6C5)ccc4n3)cc12,EC1.5,Homo sapiens [3],40 nM
same,EC1.5,[4],163 nM
CCc1nc(C)cn2cc(-c3cc(=O)n4cc(N5CCC(N6CCC6)CC5)cc(C)c4n3)cc12,pKa,physchem,8.9
same,Vd,in vivo,20 L/kg
CCc1nc(C)cn2nc(C3=CC(=O)N4C=C(C5CCNCC5)C=C(C)C4N3)cc12 (stereo unspecified),Drug metabolism,[5],<= 9 %ID
same,efflux ratio,[6],18.7
same,efflux ratio,[7],20
same,EC50,[8],23 nM
same,Drug metabolism,[9],<= 9 %ID
same,EC1.5,Homo sapiens [3],< 2 nM
same,Drug metabolism,[10],<= 9 %ID
Cc1cn2cc(-c3cc(=O)n4cc(N5CCN(C)CC5)ccc4n3)cc(F)c2n1,pKa,physchem,7.2
same,Vd,in vivo,5 L/kg
CCc1nc(C)cn2nc(-c3cc(=O)n4cc(N5CCN6CCC[C@@H]6C5)ccc4n3)cc12,pKa,physchem,7.6
same,Vd,in vivo,7 L/kg
CCc1nc(C)cn2nc(-c3cc(=O)n4cc(C5CCN(C)CC5)cc(C)c4n3)cc12,Activity,[11],Toxic
same,pKa,physchem,10.9
same,Drug metabolism,[12],Metabolite_Detected
same,Activity,[13],Toxic
same,Drug metabolism,[14],Metabolite_Detected
same,EC1.5,Homo sapiens [15],23 nM
same,Drug metabolism,[16],Metabolite_Detected
same,IC50,[17],> 10000 nM
same,Drug metabolism,[18],Metabolite_Detected
same,bioavailability,[19],52%
same,fAUC,Mus musculus [20],118 ng·h/mL
same,IC20,hERG (KCNH2),500 nM
same,IC50,[21],1800 nM
same,Tmax,[22],5 to 8 h
same,half-life,[23],42 h
same,efflux ratio,[6],2
same,fAUC,Mus musculus [24],73 ng·h/mL
same,Activity,[25],Non-Toxic
same,EC50,[8],352 nM
same,half-life,[26],42 h
same,Drug metabolism,[27],Metabolite_Detected
same,half-life,[28],19 h
same,logD,[29],2.3
same,IC50,[1]; Macaca fascicularis,900 nM
same,EC50,[30],247 nM
same,Activity,[31],Non-Toxic
same,Activity,[32],Non-Toxic
same,half-life,[33],120 h
same,Activity,[34],Toxic
same,Drug metabolism,[35],Metabolite_Detected
same,Vd,[36],20 to 30 L/kg
same,half-life,[37],19 h
same,Vd,[38],29 L/kg
same,Activity,[39],Non-Toxic
same,Activity,[40],Toxic
same,clearance,[41],25 mL/min/kg
same,Activity,[42],Toxic
same,Activity,[43],Toxic
same,Time,[44],10 ms
same,Activity,[45],Toxic
same,IC50,[2]; Homo sapiens,1850 nM
same,Drug metabolism,[46],Metabolite_Detected
same,EC1.5,[4],87 nM
same,bioavailability,[47],100%
same,Vd,in vivo,20 to 30 L/kg
same,IC50,NIH3T3,330 nM
Cc1nc2c(F)cc(-c3cc(=O)n4cc(N5CCN6CCC[C@H]6C5)ccc4n3)cc2o1,pKa,physchem,7.5
same,Vd,in vivo,4 L/kg
Cc1cn2nc(-c3cc(=O)n4cc(N5CCN6CCC[C@H]6C5)ccc4n3)ccc2n1,EC1.5,Homo sapiens [3],3 nM
same,EC1.5,[4],20 nM
Cc1cn2cc(-c3cc(=O)n4cc(N5CCN6CCC[C@H]6C5)ccc4n3)cc(C)c2n1,pKa,physchem,8.6
same,Vd,in vivo,15 L/kg
Cc1cn2cc(-c3cc(=O)n4cc(N5CCC(N6CCCC6)CC5)ccc4n3)cc(C(F)(F)F)c2n1,pKa,physchem,9.3
same,Vd,in vivo,18 L/kg
Cc1cn2cc(-c3cc(=O)n4cc(N5CCN6CCC[C@H]6C5)ccc4n3)cc(C(F)(F)F)c2n1,pKa,physchem,7.3
same,Vd,in vivo,7 L/kg
Cc1cn2nc(-c3cc(=O)n4cc(N5CCN6CCC[C@H]6C5)ccc4n3)cc(C)c2n1,EC1.5,Homo sapiens [3],2 nM
same,EC1.5,[4],22 nM
Cc1cn2cc(-c3cc(=O)n4cc(N5CCN6CCC[C@@]6(C)C5)ccc4n3)cc(C(F)(F)F)c2n1,pKa,physchem,8.4
same,Vd,in vivo,9 L/kg
